According to patent publication US20230364057A1, “BACTERIAL DNA GYRASE INHIBITORS AND METHODS OF USE THEREOF” (THE FLORIDA INTERNATIONAL UNIVERSITY BOARD OF TRUSTEES, priority 2022, published 2023):
Values after ≈ are worked out from the molar mass of the structure shown. Values joined by “and” are separate entries in the source; they are usually repeats but may differ in a detail not shown here. Equal values may be shown once. “Also recorded” adds a separate entry of the source. Read-outs that look alike come from different tables or passages of the source.

Key:
E. coli DNA gyrase [1] = molecular target: T1, E. coli DNA gyrase (Escherichia coli (strain K12), UniProt P0AES4+P0AES6); assay: E. coli DNA gyrase ATPase assay; format: biochemical; conditions: AB-MECA and gallates at 100 µM
Protocol: E. coli DNA gyrase ATPase assays were performed in 60 µL of 1 ×gyrase ATPase buffer (10 mM Tris.HCl (pH 7.5), 0.2 mM EDTA, 1 mM magnesium chloride, 1 mM DTT, and 2% (w/v) glycerol) containing 50 nM E. coli DNA gyrase, 200 ng rx pAB1, 0.8 mM Phosphoenol pyruvate, 1.2 units of Pyruvate kinase, 1.7 units of lactate dehydrogenase, and 0.4 mM of NADH at 37° C. After the reaction mixtures are incubated on ice for 5 minutes, 2 mM of ATP is added to initiate the reaction. Absorbance at OD340nm is monitored for up to 30 minutes at 37° C. in a spectrophotometer.

[2] = molecular target: E. coli DNA topoisomerase I (Escherichia coli (strain K12), UniProt P06612); assay: E. coli DNA topoisomerase I inhibition; format: biochemical; conditions: gallates at 100 µM
E. coli DNA gyrase [3] = molecular target: T1, E. coli DNA gyrase; assay: biochemical; format: biochemical
[4] = molecular target: human DNA topoisomerase I (Homo sapiens (Human), UniProt P11387); assay: Human DNA topoisomerase I inhibition; format: biochemical; conditions: gallates at 100 µM
[5] = molecular target: T2, E. coli DNA topoisomerase IV (Escherichia coli (strain K12), UniProt P0AFI2+P20083); assay: E. coli DNA topoisomerase IV relaxation assay (gel-based); format: biochemical; conditions: for IC50: IC50 Topoisomerase IV Gel-based, Table 8
Protocol: (§1) Relaxation assays by E. coli DNA topoisomerase IV and the ATPase assays were performed. […] Lane 1 is supercoiled plasmid pAB1. […] The supercoiled, fluorescently-labeled plasmid pAB1_FL905 was used.

Mtb DNA gyrase = Mtb DNA gyrase (Mycobacterium tuberculosis (strain ATCC 25618 / H37Rv), UniProt P9WG45+P9WG47); assay: Mtb DNA gyrase inhibition assay (gel-based); format: biochemical; conditions: for IC50: Table 10, read-out: IC50 (µM) Mtb gyrase
Protocol: The IC50 against E. coli (A) and Mtb (C) gyrase were determined using the gel-based gyrase inhibition assays. The gyrase mediated DNA cleavage assays (B and D) were performed using pBR322. (A) 229 inhibits E. coli gyrase. Lane 1, rx pAB1. […] Lane 1, rx pAB1. […] 100 µM of CPDs were used. Symbols rx, nk, In, and sc represent relaxed, nicked, linear, and supercoiled DNA, respectively.
Agarose gel-based DNA gyrase inhibition assays were performed in 30 µL of 1 ×gyrase buffer (35 mM Tris-HCl, 24 mM KCl, 4 mM MgCl2, 2 mM DTT, 1.75 mM ATP, 0.1 mg/mL BSA, 6.5% glycerol, pH7.5) containing 400 ng of rx pAB1 at 37° C. 100 ng of DNA gyrase was used to supercoil the rx pAB1 in the presence of different concentrations of a gyrase inhibitor. After 15 minutes of incubation with the inhibitor at 37° C., all reactions were stopped with 1 µL of stop solution (3% SDS and 250 mM EDTA). Samples were analyzed by electrophoresis in 1% w/v agarose gels followed by ethidium bromide staining and photographed under UV light.

[6] = molecular target: human DNA topoisomerase IIα (Homo sapiens (Human), UniProt P11388); assay: Agarose gel-based inhibition assay against human DNA topoisomerase IIα; format: biochemical; conditions: gallates at 100 µM
M. abscessus = assay: MIC against M. abscessus; format: cell-based, Mycobacterium abscessus; conditions: Mycobacteroides abscessus
S. aureus (ATCC 14775) = assay: Minimum inhibitory concentration, broth microdilution; conditions: Staphylococcus aureus
Protocol: (§2) Antibacterial minimum inhibitory concentrations (MICs) were obtained from three independent experiments using broth microdilution methods in 96-well plates according to Clinical and Laboratory Standards Institute guidelines. Cells were culture from singles colonies in MHIIB medium for 24 h at 37° C. in agitation (200 RPM). The cultures were then diluted using the same media to reach an OD600 of 0.1. Then, 50 µL of the diluted cultures were added to the plates holding 50 µL of serially diluted compounds in MHIIB. The plates were incubated at 37° C. for 20 h. The starting inoculum was fixated to 10^5 colony-forming units per ml.

in vitro = conditions: human
Mtb = Mtb whole cell assay (% inhibition, MIC); format: cell-based, Mycobacterium tuberculosis; conditions: Mycobacterium tuberculosis
E. coli (ATCC 25922) = assay: Minimum inhibitory concentration, broth microdilution; conditions: Escherichia coli
Protocol: as §2

MRSA = assay: as above; conditions: Staphylococcus aureus
Protocol: as §2

E. coli imp = assay: microbe, parasite or virus in culture; conditions: Escherichia coli, read-out: MIC E. coli imp BAS3023
Protocol: as §2

B. subtilis (ATCC 6633) = assay: Minimum inhibitory concentration, broth microdilution; conditions: Bacillus subtilis, ATCC6633, read-out: MIC B. subtilis ATCC 6633
E. coli DNA gyrase [7] = molecular target: T1, E. coli DNA gyrase; assay: Agarose gel-based DNA gyrase inhibition assay; format: biochemical; conditions: Table 8; read-out: IC50 Gyrase Gel-based
Protocol: 100 ng of DNA gyrase was used to supercoil the rx pAB1 in the presence of different concentrations of a gyrase inhibitor. […] Samples were analyzed by electrophoresis in 1% w/v agarose gels followed by ethidium bromide staining and photographed under UV light.

E. coli DNA gyrase [8] = molecular target: T1, E. coli DNA gyrase; assay: SDFQ-based DNA gyrase inhibition assay; format: biochemical; conditions: Table 8; read-out: IC50 Gyrase SDFQ
Protocol: 100 ng of DNA gyrase was used to supercoil the rx pAB1_FL905 in the presence of different concentrations of a gyrase inhibitor. […] The IC50 values were estimated by nonlinear fitting of the following equation: […]
where F is the fluorescence intensity at the x concentration of an min inhibitor. Fmax and Fmin are the maximum and minimum fluorescence of the DNA sample, respectively. P is a slope parameter.

[9] = molecular target: T2, E. coli DNA topoisomerase IV; assay: SDFQ-based DNA relaxation assay with E. coli DNA topoisomerase IV; format: biochemical
Protocol: as §1

[10] = ATCC14775, read-out: MIC (µM) Sa
[11] = ATCC25922, read-out: MIC (µM) Ec, E. coli strain ATCC25922
[12] = ATCC33591 / MRSA, read-out: MIC MRSA ATCC 33591
[13] = ATCC14775, read-out: MIC S. aureus ATCC 14775
[14] = ATCC25922, read-out: MIC E coli ATCC 25922, Table 9

T2 sequence (P0AFI2 whole entry, looked up): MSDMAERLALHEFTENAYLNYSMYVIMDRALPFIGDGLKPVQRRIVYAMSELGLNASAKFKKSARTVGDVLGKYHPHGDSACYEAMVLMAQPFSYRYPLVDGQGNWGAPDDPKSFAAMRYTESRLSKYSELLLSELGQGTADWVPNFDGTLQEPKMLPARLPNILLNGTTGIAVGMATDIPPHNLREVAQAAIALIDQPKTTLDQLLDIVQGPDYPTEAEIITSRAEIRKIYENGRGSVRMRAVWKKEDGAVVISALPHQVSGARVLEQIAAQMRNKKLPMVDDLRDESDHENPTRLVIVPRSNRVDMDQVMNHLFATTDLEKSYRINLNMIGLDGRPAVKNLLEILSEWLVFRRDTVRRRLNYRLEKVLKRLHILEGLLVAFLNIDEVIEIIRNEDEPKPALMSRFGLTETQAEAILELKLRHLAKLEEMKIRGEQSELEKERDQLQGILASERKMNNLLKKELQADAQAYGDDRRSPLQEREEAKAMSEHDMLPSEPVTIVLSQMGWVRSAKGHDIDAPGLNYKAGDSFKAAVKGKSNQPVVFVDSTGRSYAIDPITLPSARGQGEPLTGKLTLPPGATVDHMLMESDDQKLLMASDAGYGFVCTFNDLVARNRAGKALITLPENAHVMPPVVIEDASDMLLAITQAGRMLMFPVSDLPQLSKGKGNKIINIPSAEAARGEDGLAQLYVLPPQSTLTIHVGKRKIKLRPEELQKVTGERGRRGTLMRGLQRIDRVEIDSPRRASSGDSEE
T2 sequence (P20083 whole entry, looked up): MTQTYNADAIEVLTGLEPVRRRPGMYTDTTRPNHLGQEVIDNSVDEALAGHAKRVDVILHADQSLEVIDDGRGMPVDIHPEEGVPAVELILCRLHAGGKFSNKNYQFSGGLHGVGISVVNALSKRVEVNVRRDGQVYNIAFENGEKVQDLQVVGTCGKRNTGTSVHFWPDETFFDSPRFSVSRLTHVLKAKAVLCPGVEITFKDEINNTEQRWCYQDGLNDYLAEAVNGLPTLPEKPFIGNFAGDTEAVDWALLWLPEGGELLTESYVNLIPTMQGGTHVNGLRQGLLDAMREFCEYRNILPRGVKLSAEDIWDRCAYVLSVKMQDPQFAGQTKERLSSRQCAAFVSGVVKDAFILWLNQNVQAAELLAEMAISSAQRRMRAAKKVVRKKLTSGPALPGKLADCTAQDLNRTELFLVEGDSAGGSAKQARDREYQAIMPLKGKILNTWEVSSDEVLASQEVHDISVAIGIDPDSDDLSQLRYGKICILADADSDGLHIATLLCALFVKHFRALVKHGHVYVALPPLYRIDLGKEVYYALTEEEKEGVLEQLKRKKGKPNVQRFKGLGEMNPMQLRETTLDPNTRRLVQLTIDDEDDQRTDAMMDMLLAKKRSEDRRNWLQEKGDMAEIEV
human DNA topoisomerase IIα, sequence (P11388 whole entry): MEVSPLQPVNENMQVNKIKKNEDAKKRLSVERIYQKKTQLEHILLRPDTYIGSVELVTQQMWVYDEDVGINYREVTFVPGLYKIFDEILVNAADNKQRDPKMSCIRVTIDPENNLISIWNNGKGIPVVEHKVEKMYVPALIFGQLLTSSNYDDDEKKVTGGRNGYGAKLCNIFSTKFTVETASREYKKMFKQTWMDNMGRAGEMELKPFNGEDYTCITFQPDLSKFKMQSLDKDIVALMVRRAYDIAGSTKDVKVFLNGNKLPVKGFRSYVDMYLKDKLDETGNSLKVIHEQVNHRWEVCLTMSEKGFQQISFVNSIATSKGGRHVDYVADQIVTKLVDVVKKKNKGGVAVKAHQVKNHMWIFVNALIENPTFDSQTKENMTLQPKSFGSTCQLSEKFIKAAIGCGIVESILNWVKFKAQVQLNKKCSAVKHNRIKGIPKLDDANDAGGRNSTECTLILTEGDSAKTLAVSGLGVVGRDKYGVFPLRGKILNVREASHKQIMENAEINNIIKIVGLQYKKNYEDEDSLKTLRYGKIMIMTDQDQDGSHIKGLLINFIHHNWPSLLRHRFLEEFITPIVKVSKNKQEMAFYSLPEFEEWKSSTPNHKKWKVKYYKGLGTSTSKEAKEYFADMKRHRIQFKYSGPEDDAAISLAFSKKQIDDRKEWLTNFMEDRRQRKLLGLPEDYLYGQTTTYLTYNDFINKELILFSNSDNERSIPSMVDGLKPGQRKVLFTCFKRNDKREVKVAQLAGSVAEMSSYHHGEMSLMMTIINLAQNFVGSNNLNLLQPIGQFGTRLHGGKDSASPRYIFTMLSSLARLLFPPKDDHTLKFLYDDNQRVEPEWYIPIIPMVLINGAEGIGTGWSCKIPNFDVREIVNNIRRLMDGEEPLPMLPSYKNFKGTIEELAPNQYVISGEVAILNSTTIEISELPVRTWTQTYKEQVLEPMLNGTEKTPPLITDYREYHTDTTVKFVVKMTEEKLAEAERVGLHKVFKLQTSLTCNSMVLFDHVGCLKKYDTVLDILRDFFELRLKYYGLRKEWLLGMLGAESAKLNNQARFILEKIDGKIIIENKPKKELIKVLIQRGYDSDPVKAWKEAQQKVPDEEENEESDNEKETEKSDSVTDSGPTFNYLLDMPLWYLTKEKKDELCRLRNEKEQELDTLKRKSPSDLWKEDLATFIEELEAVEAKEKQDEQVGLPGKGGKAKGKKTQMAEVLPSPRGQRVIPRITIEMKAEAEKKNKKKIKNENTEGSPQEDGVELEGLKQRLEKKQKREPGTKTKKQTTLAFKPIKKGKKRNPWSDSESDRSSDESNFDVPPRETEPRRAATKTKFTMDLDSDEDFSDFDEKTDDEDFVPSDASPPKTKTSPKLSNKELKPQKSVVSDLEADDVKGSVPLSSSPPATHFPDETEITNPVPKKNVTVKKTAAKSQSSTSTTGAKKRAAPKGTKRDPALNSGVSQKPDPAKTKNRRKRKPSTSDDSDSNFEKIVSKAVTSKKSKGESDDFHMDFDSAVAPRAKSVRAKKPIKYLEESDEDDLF
E. coli DNA topoisomerase I, sequence (P06612 whole entry, looked up): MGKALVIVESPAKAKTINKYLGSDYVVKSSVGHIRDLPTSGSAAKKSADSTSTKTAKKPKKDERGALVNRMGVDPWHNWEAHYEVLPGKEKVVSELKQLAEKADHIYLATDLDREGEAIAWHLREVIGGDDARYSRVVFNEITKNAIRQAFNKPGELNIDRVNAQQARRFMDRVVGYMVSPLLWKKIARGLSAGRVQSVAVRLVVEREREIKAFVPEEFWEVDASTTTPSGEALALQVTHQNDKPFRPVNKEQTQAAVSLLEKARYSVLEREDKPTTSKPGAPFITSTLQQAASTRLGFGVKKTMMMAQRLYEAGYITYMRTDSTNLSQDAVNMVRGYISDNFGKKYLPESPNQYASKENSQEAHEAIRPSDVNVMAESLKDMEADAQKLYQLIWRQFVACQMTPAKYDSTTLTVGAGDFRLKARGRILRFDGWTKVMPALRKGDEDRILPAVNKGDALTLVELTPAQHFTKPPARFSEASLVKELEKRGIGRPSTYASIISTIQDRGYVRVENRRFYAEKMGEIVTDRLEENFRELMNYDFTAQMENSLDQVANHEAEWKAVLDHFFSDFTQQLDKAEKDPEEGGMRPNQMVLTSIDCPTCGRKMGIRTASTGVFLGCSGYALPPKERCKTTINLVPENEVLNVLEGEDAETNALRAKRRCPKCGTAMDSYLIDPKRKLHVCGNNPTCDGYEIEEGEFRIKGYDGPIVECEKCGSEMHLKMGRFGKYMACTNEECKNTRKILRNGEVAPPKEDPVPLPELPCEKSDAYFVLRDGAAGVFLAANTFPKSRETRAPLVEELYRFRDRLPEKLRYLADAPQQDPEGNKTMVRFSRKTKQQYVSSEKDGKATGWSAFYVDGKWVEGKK
human DNA topoisomerase I, sequence (P11387 whole entry): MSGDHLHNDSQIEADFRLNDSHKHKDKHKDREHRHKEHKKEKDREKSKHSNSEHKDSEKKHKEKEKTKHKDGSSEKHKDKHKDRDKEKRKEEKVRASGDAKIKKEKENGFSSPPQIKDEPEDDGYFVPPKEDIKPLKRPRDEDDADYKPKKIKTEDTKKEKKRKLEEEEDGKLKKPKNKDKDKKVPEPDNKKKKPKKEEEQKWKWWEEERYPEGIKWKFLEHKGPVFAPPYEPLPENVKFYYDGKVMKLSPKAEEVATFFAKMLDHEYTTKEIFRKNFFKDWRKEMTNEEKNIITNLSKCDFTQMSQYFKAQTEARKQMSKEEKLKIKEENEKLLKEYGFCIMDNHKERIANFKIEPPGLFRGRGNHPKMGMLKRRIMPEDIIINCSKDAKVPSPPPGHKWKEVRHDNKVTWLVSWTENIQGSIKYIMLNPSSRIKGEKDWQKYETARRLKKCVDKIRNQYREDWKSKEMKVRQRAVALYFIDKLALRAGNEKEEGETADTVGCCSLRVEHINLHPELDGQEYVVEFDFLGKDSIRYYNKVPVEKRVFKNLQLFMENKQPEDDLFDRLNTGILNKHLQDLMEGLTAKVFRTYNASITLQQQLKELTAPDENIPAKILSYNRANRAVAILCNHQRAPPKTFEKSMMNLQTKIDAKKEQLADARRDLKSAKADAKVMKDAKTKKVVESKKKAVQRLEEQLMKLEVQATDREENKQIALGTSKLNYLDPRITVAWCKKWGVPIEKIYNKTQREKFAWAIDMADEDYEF

## CNC(=O)[C@H]1O[C@@H](n2cnc3c(NCc4ccc(N)cc4)ncnc32)[C@H](O)[C@@H]1O [AB-MECA, reference compound]
E. coli DNA gyrase [1]
  inhibition of the ATPase activities of E. coli DNA gyrase: did not inhibit
[2]
  inhibition of E. coli DNA topoisomerase I: did not inhibit
E. coli DNA gyrase [3]
  inhibition of E. coli DNA gyrase activities: does not inhibit
[4]
  inhibition of human DNA topoisomerase I: did not inhibit
[5]
  inhibition of E. coli DNA topoisomerase IV: did not inhibit
Mtb DNA gyrase
  inhibition of Mtb DNA gyrase activities: did not inhibit
[6]
  inhibition of human DNA topoisomerase IIα: did not inhibit

## C[n+]1c(-c2ccc(/C=N/NC(=O)c3cncc(C(=O)N/N=C/c4ccc(-c5cn6ccccc6[n+]5C)cc4)c3)cc2)cn2ccccc21 [Compound 260]
M. abscessus
  MIC: > 200 µM
S. aureus (ATCC 14775); [10]
  MIC: > 200 µM
In vitro
  IC50: > 200 µM
Mtb
  MIC: > 200 µM
Mtb DNA gyrase
  IC50: 92 µM
E. coli (ATCC 25922); [11]
  MIC: > 200 µM

## CNC(=O)[C@H]1O[C@@H](n2cnc3c(NCc4cccc(I)c4)ncnc32)[C@H](O)[C@@H]1O [IB-MECA, reference compound]
E. coli DNA gyrase [1]
  inhibition of the ATPase activities of E. coli DNA gyrase: ATP competitive inhibitors; also recorded: inhibition
[2]
  inhibition of E. coli DNA topoisomerase I: did not inhibit
E. coli DNA gyrase [3]; read-out: IC50 against E. coli DNA gyrase
  IC50: 50.7 µM
[4]
  inhibition of human DNA topoisomerase I: did not inhibit
[5]
  inhibition of E. coli DNA topoisomerase IV: did not inhibit
Mtb DNA gyrase
  inhibition of Mtb DNA gyrase activities: did not inhibit
[6]
  inhibition of human DNA topoisomerase IIα: did not inhibit

## C[n+]1c(-c2ccc(/C=N/NC(=O)c3cccc(C(=O)N/N=C/c4ccc(-c5cn6ccccc6[n+]5C)cc4)c3)cc2)cn2ccccc21 [Compound 259]
M. abscessus
  MIC: > 200 µM
S. aureus (ATCC 14775); [10]
  MIC: 200 µM
In vitro
  IC50: > 200 µM
Mtb
  MIC: > 200 µM
Mtb DNA gyrase
  IC50: 2.6 µM
E. coli (ATCC 25922); [11]
  MIC: > 200 µM

## CCCCOC(=O)c1cc(O)c(O)c(O)c1 [Butyl gallate, butyl gallate]
MRSA; [12]
  MIC: > 200 µM
S. aureus (ATCC 14775); [13]
  MIC: > 200 µM
E. coli imp
  MIC: > 200 µM
B. subtilis (ATCC 6633)
  MIC: > 64 µg/mL and > 200 µM
E. coli DNA gyrase [7]
  IC50: > 100 µM
E. coli DNA gyrase [8]
  IC50: > 100 µM
[5]
  IC50: > 100 µM
E. coli (ATCC 25922); [14]
  MIC: > 200 µM
[9]
  IC50: > 100 µM

## CCCCCCCCOC(=O)c1cc(O)c(O)c(O)c1 [Octyl gallate, octyl gallate]
MRSA; [12]
  MIC: 100 µM
MRSA; ATCCBAA44 / MRSA, read-out: MIC S. aureus (MRSA) ATCC BAA44
  MIC: 56.5 µg/mL
S. aureus (ATCC 14775); [13]
  MIC: 56.5 µg/mL and 200 µM
E. coli imp
  MIC: 50 µM (≈ 14.1 µg/mL)
B. subtilis (ATCC 6633)
  MIC: 4 µg/mL and 12.5 µM to 25 µM
E. coli DNA gyrase [7]
  IC50: 50 µM
E. coli DNA gyrase [8]
  IC50: 26 µM
[5]
  inhibition of E. coli DNA topoisomerase IV: strongly inhibit
  IC50: 50 µM
E. coli (ATCC 25922); [14]
  MIC: > 200 µM
E. coli (ATCC 25922); ATCC25922, read-out: MIC E. coli ATCC 25922, Table 7
  MIC: 226 µg/mL
[9]
  IC50: 41.2 µM

## CO[C@@H]1[C@@H](OC(N)=O)[C@@H](O)[C@H](Oc2ccc3c(O)c(NC(=O)c4ccc(O)c(CC=C(C)C)c4)c(=O)oc3c2C)OC1(C)C [Novobiocin, novobiocin, reference compound]
MRSA; [12]
  MIC: < 6.25 µM
S. aureus (ATCC 14775); [13]
  MIC: < 6.25 µM
E. coli imp
  MIC: 6.25 µM (≈ 3.83 µg/mL)
B. subtilis (ATCC 6633)
  MIC: < 625 µM
E. coli (ATCC 25922); [14]
  MIC: 158 µM
